From PMC5218480 (PLoS ONE, 2017)

System: MV-4-11 cells
Assay: Gene expression microarray analysis (Affymetrix PrimeView) and GSEA
Format: cell-based, human
Design: RFU PODN (11730768_x_at) / Fold change /veh PODN (11730768_x_at) / RFU LINC00158 (11744669_a_at) / Fold change /veh LINC00158 (11744669_a_at) / RFU DUSP10 (11751237_a_at) / Fold change /veh DUSP10 (11751237_a_at) / RFU ID3 (11757404_x_at) / Fold change /veh ID3 (11757404_x_at) / RFU PLEKHG5 (11737974_s_at) / Fold change /veh PLEKHG5 (11737974_s_at) / RFU LRRC4B (11730491_at) / Fold change /veh LRRC4B (11730491_at) / RFU GIMAP4 (11747438_a_at) / Fold change /veh GIMAP4 (11747438_a_at) / RFU KRT8 (11758183_x_at) / Fold change /veh KRT8 (11758183_x_at) / RFU CNN1 (11734310_a_at) / Fold change /veh CNN1 (11734310_a_at) / RFU VPS37D (11726825_at) / Fold change /veh VPS37D (11726825_at) / RFU C10orf10 (11716522_x_at) / Fold change /veh C10orf10 (11716522_x_at) / RFU KIR2DL2 /// KIR2DL4 /// KIR2DL5A /// KIR2DL5B /// KIR2DS1 /// KIR2DS2 /// KIR2DS3 /// KIR2DS4 /// KIR3DL3 /// KIR3DL3 /// KIR3DS1 (11738374_at) / Fold change /veh KIR2DL2 /// KIR2DL4 /// KIR2DL5A /// KIR2DL5B /// KIR2DS1 /// KIR2DS2 /// KIR2DS3 /// KIR2DS4 /// KIR3DL3 /// KIR3DL3 /// KIR3DS1 (11738374_at) / RFU C1QL1 (11718748_at) / Fold change /veh C1QL1 (11718748_at) / RFU TMPRSS4 (11747572_a_at) / Fold change /veh TMPRSS4 (11747572_a_at) / RFU HAMP (11756126_x_at) / Fold change /veh HAMP (11756126_x_at) / RFU RNFT2 (11725882_a_at) / Fold change /veh RNFT2 (11725882_a_at) / RFU NR4A2 (11747474_a_at) / Fold change /veh NR4A2 (11747474_a_at) / RFU ABCC12 (11746883_a_at) / Fold change /veh ABCC12 (11746883_a_at) / RFU TMEM136 (11760407_x_at) / Fold change /veh TMEM136 (11760407_x_at) / RFU CLDN22 /// WWC2 (11732394_at) / Fold change /veh CLDN22 /// WWC2 (11732394_at) / RFU HLA-DPB1 (11760878_x_at) / Fold change /veh HLA-DPB1 (11760878_x_at) / RFU SPINT1 (11716480_a_at) / Fold change /veh SPINT1 (11716480_a_at) / RFU GAP43 (11754022_s_at) / Fold change /veh GAP43 (11754022_s_at) / RFU A4GNT (11735810_at) / Fold change /veh A4GNT (11735810_at) / RFU PRB3 (11715151_x_at) / Fold change /veh PRB3 (11715151_x_at) / RFU TUBB4B (11761932_at) / Fold change /veh TUBB4B (11761932_at) / RFU CAPN14 (11732068_a_at) / Fold change /veh CAPN14 (11732068_a_at) / RFU TMCC2 (11721928_a_at) / Fold change /veh TMCC2 (11721928_a_at) / RFU IRGQ (11745062_a_at) / Fold change /veh IRGQ (11745062_a_at) / RFU FAM174B (11720279_a_at) / Fold change /veh FAM174B (11720279_a_at) / RFU TMPRSS4 (11748680_a_at) / Fold change /veh TMPRSS4 (11748680_a_at) / RFU FAM212B (11763350_a_at) / Fold change /veh FAM212B (11763350_a_at) / RFU PLEKHG5 (11743358_a_at) / Fold change /veh PLEKHG5 (11743358_a_at) / RFU ZSCAN30 (11745921_a_at) / Fold change /veh ZSCAN30 (11745921_a_at) / RFU CMKLR1 (11741424_a_at) / Fold change /veh CMKLR1 (11741424_a_at) / RFU LOC101060620 /// MAPK8IP1 (11723275_at) / Fold change /veh LOC101060620 /// MAPK8IP1 (11723275_at) / RFU SPTSSB (11747773_x_at) / Fold change /veh SPTSSB (11747773_x_at) / RFU PRSS12 (11739890_at) / Fold change /veh PRSS12 (11739890_at) / RFU BIN1 (11741810_x_at) / Fold change /veh BIN1 (11741810_x_at) / RFU WNT11 (11732464_a_at) / Fold change /veh WNT11 (11732464_a_at) / RFU C10orf10 (11716521_a_at) / Fold change /veh C10orf10 (11716521_a_at) / RFU C5orf56 (11738089_at) / Fold change /veh C5orf56 (11738089_at) / RFU CYB561 (11721691_x_at) / Fold change /veh CYB561 (11721691_x_at) / RFU ANKRD19P (11752326_a_at) / Fold change /veh ANKRD19P (11752326_a_at) / RFU OR2T12 /// OR2T33 /// OR2T8 (11738714_s_at) / Fold change /veh OR2T12 /// OR2T33 /// OR2T8 (11738714_s_at) / RFU VCAN (11748164_a_at) / Fold change /veh VCAN (11748164_a_at) / RFU JSRP1 (11732532_at) / Fold change /veh JSRP1 (11732532_at) / RFU KRTAP10-11 (11738290_x_at) / Fold change /veh KRTAP10-11 (11738290_x_at) / RFU MYO3A (11730013_a_at) / Fold change /veh MYO3A (11730013_a_at) / RFU EBF3 (11725865_a_at) / Fold change /veh EBF3 (11725865_a_at) / RFU CAMK2N1 (11719241_x_at) / Fold change /veh CAMK2N1 (11719241_x_at) / RFU C5orf56 (11738088_a_at) / Fold change /veh C5orf56 (11738088_a_at) / RFU OLFML3 (11715873_a_at) / Fold change /veh OLFML3 (11715873_a_at) / RFU LOC100653217 /// NTM (11731650_a_at) / Fold change /veh LOC100653217 /// NTM (11731650_a_at) / RFU MAPK11 (11762145_a_at) / Fold change /veh MAPK11 (11762145_a_at) / RFU FIZ1 (11724087_x_at) / Fold change /veh FIZ1 (11724087_x_at) / RFU OASL (11726364_x_at) / Fold change /veh OASL (11726364_x_at) / RFU SOX15 (11748057_x_at) / Fold change /veh SOX15 (11748057_x_at) / RFU CD79A (11719716_a_at) / Fold change /veh CD79A (11719716_a_at) / RFU HIST1H1D (11736915_at) / Fold change /veh HIST1H1D (11736915_at) / RFU CASKIN2 (11723855_a_at) / Fold change /veh CASKIN2 (11723855_a_at) / RFU LOC730098 (11760151_x_at) / Fold change /veh LOC730098 (11760151_x_at) / RFU OR4N2 (11742367_at) / Fold change /veh OR4N2 (11742367_at) / RFU PRRT2 (11749266_a_at) / Fold change /veh PRRT2 (11749266_a_at) / RFU SNX32 (11753110_a_at) / Fold change /veh SNX32 (11753110_a_at) / RFU CDHR5 (11726645_a_at) / Fold change /veh CDHR5 (11726645_a_at) / RFU RCAN1 (11760418_a_at) / Fold change /veh RCAN1 (11760418_a_at) / RFU FAM167A (11723789_a_at) / Fold change /veh FAM167A (11723789_a_at) / RFU FAM26E (11764081_at) / Fold change /veh FAM26E (11764081_at) / RFU ISYNA1 (11749810_s_at) / Fold change /veh ISYNA1 (11749810_s_at) / RFU ACY1 (11761880_at) / Fold change /veh ACY1 (11761880_at) / RFU 11764098_at / Fold change /veh 11764098_at / RFU SAMD14 (11745864_x_at) / Fold change /veh SAMD14 (11745864_x_at) / RFU NPB (11741838_a_at) / Fold change /veh NPB (11741838_a_at) / RFU TMPRSS6 (11731388_a_at) / Fold change /veh TMPRSS6 (11731388_a_at) / RFU KRTAP10-2 (11738614_at) / Fold change /veh KRTAP10-2 (11738614_at) / RFU ARHGAP8 /// PRR5-ARHGAP8 (11727945_x_at) / Fold change /veh ARHGAP8 /// PRR5-ARHGAP8 (11727945_x_at) / RFU KRTAP5-7 /// NADSYN1 (11734609_at) / Fold change /veh KRTAP5-7 /// NADSYN1 (11734609_at) / RFU RASL12 (11751679_a_at) / Fold change /veh RASL12 (11751679_a_at) / RFU CDKN2B (11736163_a_at) / Fold change /veh CDKN2B (11736163_a_at) / RFU PRF1 (11729649_at) / Fold change /veh PRF1 (11729649_at) / RFU, ZNF638 /// ZNF638-IT1 / Fold change vs veh, ZNF638 /// ZNF638-IT1 / RFU, PANK3 / Fold change vs veh, PANK3 / RFU, SH3YL1 / Fold change vs veh, SH3YL1 / RFU, ZEB2 / Fold change vs veh, ZEB2 / RFU, NRIP1 / Fold change vs veh, NRIP1 / RFU, PTTG1IP / Fold change vs veh, PTTG1IP / RFU, CAPN2 / Fold change vs veh, CAPN2 / RFU, MED14 / Fold change vs veh, MED14 / RFU, SNORA58 / Fold change vs veh, SNORA58 / RFU, C1orf63 / Fold change vs veh, C1orf63 / RFU, LRRFIP1 / Fold change vs veh, LRRFIP1 / RFU, NDUFAF7 / Fold change vs veh, NDUFAF7 / RFU, SLC12A2 / Fold change vs veh, SLC12A2 / RFU, IBTK / Fold change vs veh, IBTK / RFU, ESF1 / Fold change vs veh, ESF1 / Fold change vs veh, TMEM50B / RFU, TAOK1 / Fold change vs veh, TAOK1 / RFU, ACBD3 / Fold change vs veh, ACBD3 / RFU, TMA16 / Fold change vs veh, TMA16 / RFU, RWDD3 / Fold change vs veh, RWDD3 / RFU, BCAT1 / Fold change vs veh, BCAT1 / RFU, EDEM3 / Fold change vs veh, EDEM3 / RFU, TMEM33 / Fold change vs veh, TMEM33 / RFU, WDR75 / Fold change vs veh, WDR75 / RFU, AHCTF1 / Fold change vs veh, AHCTF1 / RFU, TFRC / Fold change vs veh, TFRC / RFU, ZDHHC17 / Fold change vs veh, ZDHHC17 / RFU, NOM1 / Fold change vs veh, NOM1 / RFU, ARL8B / Fold change vs veh, ARL8B / RFU, ZBTB11 / Fold change vs veh, ZBTB11 / RFU, TAMM41 / Fold change vs veh, TAMM41 / RFU, KIAA1704 /// LOC100996395 / Fold change vs veh, KIAA1704 /// LOC100996395 / RFU, ING1 / Fold change vs veh, ING1 / RFU, TRMT61B / Fold change vs veh, TRMT61B / RFU, FUBP3 / Fold change vs veh, FUBP3 / RFU, TP53 / Fold change vs veh, TP53 / RFU, TNKS2 / Fold change vs veh, TNKS2 / RFU, ZFP14 / Fold change vs veh, ZFP14 / RFU, ACTR2 / Fold change vs veh, ACTR2 / RFU, PPP3R1 / Fold change vs veh, PPP3R1 / RFU, PIK3R1 / Fold change vs veh, PIK3R1 / RFU, HNRNPA1 / Fold change vs veh, HNRNPA1 / RFU, RNF170 / Fold change vs veh, RNF170 / RFU, ZNF28 / Fold change vs veh, ZNF28 / RFU, RNGTT / Fold change vs veh, RNGTT / RFU, OGT / Fold change vs veh, OGT / RFU, BRD1 / Fold change vs veh, BRD1 / RFU, MARS / Fold change vs veh, MARS / RFU, ZNF655 / Fold change vs veh, ZNF655 / RFU, FAHD1 / Fold change vs veh, FAHD1 / RFU, BDP1 / Fold change vs veh, BDP1 / RFU, LRRCC1 / Fold change vs veh, LRRCC1 / RFU, ARID1A / Fold change vs veh, ARID1A / RFU, ZNF146 / Fold change vs veh, ZNF146 / RFU, ZNF330 / Fold change vs veh, ZNF330 / RFU, GPN3 / Fold change vs veh, GPN3 / RFU, C9orf123 / Fold change vs veh, C9orf123 / RFU, N4BP2L2 / Fold change vs veh, N4BP2L2 / RFU, ARFIP1 / Fold change vs veh, ARFIP1 / RFU, FAM179B / Fold change vs veh, FAM179B / RFU, BCL10 / Fold change vs veh, BCL10 / RFU, UHRF1BP1L / Fold change vs veh, UHRF1BP1L / RFU, BET1 / Fold change vs veh, BET1 / RFU, CNOT2 / Fold change vs veh, CNOT2 / RFU, ZNF268 / Fold change vs veh, ZNF268 / Fold change vs veh, ZNF507 / RFU, DGCR2 / Fold change vs veh, DGCR2 / RFU, WDSUB1 / Fold change vs veh, WDSUB1 / Fold change vs veh, HSP90B1 /// MIR3652 / RFU, ADSS / Fold change vs veh, ADSS / RFU, GK / Fold change vs veh, GK / RFU, ZNF148 / Fold change vs veh, ZNF148 / RFU, TAF9 / Fold change vs veh, TAF9 / RFU, SLC1A5 / Fold change vs veh, SLC1A5 / RFU, SLMO2 / Fold change vs veh, SLMO2 / RFU, ABCC4 / Fold change vs veh, ABCC4 / RFU, LOC101060439 /// RAP1B / Fold change vs veh, LOC101060439 /// RAP1B / RFU, RFX7 / Fold change vs veh, RFX7 / RFU, GTPBP10 / Fold change vs veh, GTPBP10 / RFU, CNEP1R1 / Fold change vs veh, CNEP1R1 / RFU, BIVM-ERCC5 /// ERCC5 / Fold change vs veh, BIVM-ERCC5 /// ERCC5 / RFU, ILF3 / Fold change vs veh, ILF3 / RFU 11762660_at / Fold change /veh 11762660_at / RFU VCAN (11757783_s_at) / Fold change /veh VCAN (11757783_s_at) / RFU DDX43 (11728927_at) / Fold change /veh DDX43 (11728927_at) / RFU KRT8 (11758188_x_at) / Fold change /veh KRT8 (11758188_x_at) / RFU NKD1 (11759106_at) / Fold change /veh NKD1 (11759106_at) / RFU SRD5A1 (11742802_a_at) / Fold change /veh SRD5A1 (11742802_a_at) / RFU TPSAB1 /// TPSB2 (11721975_s_at) / Fold change /veh TPSAB1 /// TPSB2 (11721975_s_at) / RFU GSTM3 (11746129_a_at) / Fold change /veh GSTM3 (11746129_a_at) / RFU IL23R (11737362_x_at) / Fold change /veh IL23R (11737362_x_at) / RFU TMEM51 (11727254_a_at) / Fold change /veh TMEM51 (11727254_a_at) / RFU PIWIL2 (11732686_x_at) / Fold change /veh PIWIL2 (11732686_x_at) / RFU ORM1 (11744905_x_at) / Fold change /veh ORM1 (11744905_x_at) / RFU CCDC152 (11743942_at) / Fold change /veh CCDC152 (11743942_at) / RFU ECM1 (11717891_a_at) / Fold change /veh ECM1 (11717891_a_at) / RFU IL23R (11748794_a_at) / Fold change /veh IL23R (11748794_a_at) / RFU TNFAIP8L3 (11732012_x_at) / Fold change /veh TNFAIP8L3 (11732012_x_at) / RFU MBOAT4 (11741988_at) / Fold change /veh MBOAT4 (11741988_at) / RFU 11764193_at / Fold change /veh 11764193_at / RFU TMEM53 (11763286_at) / Fold change /veh TMEM53 (11763286_at) / RFU MAGEB2 (11727129_at) / Fold change /veh MAGEB2 (11727129_at) / RFU TMEM200A (11744735_a_at) / Fold change /veh TMEM200A (11744735_a_at) / RFU CCDC152 (11751479_a_at) / Fold change /veh CCDC152 (11751479_a_at) / RFU FAM211A (11726209_a_at) / Fold change /veh FAM211A (11726209_a_at) / RFU RGS16 (11746705_a_at) / Fold change /veh RGS16 (11746705_a_at) / RFU VCAN (11755009_s_at) / Fold change /veh VCAN (11755009_s_at) / RFU RHOB (11743442_s_at) / Fold change /veh RHOB (11743442_s_at) / RFU RGS16 (11720943_a_at) / Fold change /veh RGS16 (11720943_a_at) / RFU RGS16 (11720944_at) / Fold change /veh RGS16 (11720944_at) / RFU, VPS4B / Fold change vs veh, VPS4B / RFU, CREB1 / Fold change vs veh, CREB1 / RFU, DNAJC13 / Fold change vs veh, DNAJC13 / RFU, GNAQ / Fold change vs veh, GNAQ / RFU, CDK5R1 / Fold change vs veh, CDK5R1 / RFU, ZRANB3 / Fold change vs veh, ZRANB3 / RFU, CUL4A / Fold change vs veh, CUL4A / RFU, CCNY / Fold change vs veh, CCNY / RFU, UFL1 / Fold change vs veh, UFL1 / RFU, COG3 / Fold change vs veh, COG3 / RFU, DIAPH2 / Fold change vs veh, DIAPH2 / RFU, SKA2 / Fold change vs veh, SKA2 / RFU, AFF3 / Fold change vs veh, AFF3 / RFU, LMF1 / Fold change vs veh, LMF1 / RFU, IPO11 / Fold change vs veh, IPO11 / RFU, DFFB / Fold change vs veh, DFFB / RFU, FOXP1 / Fold change vs veh, FOXP1 / RFU, CARD8 / Fold change vs veh, CARD8 / RFU, STRN3 / Fold change vs veh, STRN3 / RFU, ADK / Fold change vs veh, ADK / RFU, RASSF2 / Fold change vs veh, RASSF2 / RFU, WIPF1 / Fold change vs veh, WIPF1 / RFU, LARP1B / Fold change vs veh, LARP1B / RFU, RASA1 / Fold change vs veh, RASA1 / RFU, RB1 / Fold change vs veh, RB1 / RFU, PPFIA1 / Fold change vs veh, PPFIA1 / RFU, MAT2A / Fold change vs veh, MAT2A / RFU, CCT5 / Fold change vs veh, CCT5 / RFU, WDR92 / Fold change vs veh, WDR92 / RFU, CUX1 / Fold change vs veh, CUX1 / RFU, TTC7A / Fold change vs veh, TTC7A / RFU, TMEM135 / Fold change vs veh, TMEM135 / RFU, DEPTOR / Fold change vs veh, DEPTOR / RFU, CPM / Fold change vs veh, CPM / RFU, DNAJB6 / Fold change vs veh, DNAJB6 / RFU, CACNA2D3 / Fold change vs veh, CACNA2D3 / RFU, DTX4 / Fold change vs veh, DTX4 / RFU, TFCP2 / Fold change vs veh, TFCP2 / RFU, GMCL1 /// GMCL1P1 / Fold change vs veh, GMCL1 /// GMCL1P1 / RFU, AEBP2 / Fold change vs veh, AEBP2 / RFU, SNHG1 /// SNORD22 /// SNORD25 /// SNORD26 /// SNORD27 /// SNORD28 /// SNORD29 /// SNORD31 / Fold change vs veh, SNHG1 /// SNORD22 /// SNORD25 /// SNORD26 /// SNORD27 /// SNORD28 /// SNORD29 /// SNORD31 / Fold change (Aza/veh), C12orf56 (ProbeSet 11735607_a_at) / Fold change (ACY-1035/veh), C12orf56 (ProbeSet 11735607_a_at) / Fold change (Aza/veh), FGFR1OP (ProbeSet 11751329_s_at) / Fold change (ACY-1035/veh), FGFR1OP (ProbeSet 11751329_s_at) / Fold change (Aza/veh), VPS36 (ProbeSet 11739960_a_at) / Fold change (ACY-1035/veh), VPS36 (ProbeSet 11739960_a_at) / RFU SYPL1 (11715823_x_at) / Fold change /veh SYPL1 (11715823_x_at) / RFU IGFBP7 (11715501_s_at) / Fold change /veh IGFBP7 (11715501_s_at) / RFU REEP3 (11722064_at) / Fold change /veh REEP3 (11722064_at) / RFU IGLL1 (11728026_x_at) / Fold change /veh IGLL1 (11728026_x_at): dose or concentration left out as unconfirmed
Conditions: MV-4-11 cells, 48 hours

For Nc1ncn([C@@H]2O[C@H](CO)[C@@H](O)[C@H]2O)c(=O)n1 [azacitidine], the “Fold change /veh RASL12 (11751679_a_at)” value was 0.96.
